Tests used:
[1] = tested on: adenocarcinomic human alveolar basal epithelial cell line A549; experiment: High content analysis of anti-cancer agent by cell image analysis (Experimental Example 5); type: cell-based; conditions: 0.03 (w/v)% low-molecular agar medium; for average cell number per sphere / number of average spheres per 10 mm^2 / projected area: 10 days
Description: By a method similar to the preparation method of medium composition in Analysis Example 1, a medium composition containing 10 (v/v) % FBS, and 0.03 (w/v) % of low-molecular agar or agar for general use in DMEM (manufactured by Wako Pure Chemical Industries, Ltd.) was prepared. Paclitaxel (manufactured by Wako Pure Chemical Industries, Ltd.) was further added to a final concentration of 0.001 μM, 0.01 μM or 0.1 μM. Successively, adenocarcinomic human alveolar basal epithelial cell line A549 (manufactured by DS PHARMA BIOMEDICAL CO., LTD.) was seeded in the above-mentioned medium composition containing low-molecular agar at 5,000 cells/mL, and dispensed to the wells of a 96 well flat bottom ultra-low attachment surface microplate (manufactured by Corning Incorporated, #3474) at 100 μL per 1 well. Successively, the plate was cultured in a standing state in a CO2 incubator (37° C., 5% CO2) for 10 days.
Then, a solution of […] of Hoechst 33342 (manufactured by Invitrogen) in DMEM (phenol red, L-glutamine free) (manufactured by Wako Pure Chemical Industries, Ltd.) was prepared, and added, at 10 μL per 1 well, to the above-mentioned culture after static culture for 10 days, and the mixture was stood in a CO2 incubator (37° C., 5% CO2) for 45 min. Successively, a solution of 20 μg/mL Propidium Iodide (manufactured by BIOMOL) in DMEM (phenol red, L-glutamine free) (manufactured by Wako Pure Chemical Industries, Ltd.) was prepared and added at 10 μL per 1 well. The plate was centrifuged at 1,500 rpm for 10 min, and high content analysis was performed by cell image analysis using a cell imaging apparatus (“ArrayScan VTI HCS Reader”, manufactured by Thermo Fisher Scientific). At that time, observation was performed with 10 fields of view per well using a ×4 objective lens, cell outline and cell nucleus were detected from Hoechst33342 fluorescence image, and dead cells were detected from propidium iodide fluorescence image. In addition, 50% inhibitory concentration (nM) of paclitaxel by high content analysis was calculated with the number of constituent cells when the anticancer agent was added at the maximum concentration as 100% inhibition rate of sphere formation.
The observed images (area per 1 field: 1 mm^2) of A549 cells cultured for 10 days in the medium composition of the present invention containing low-molecular agar, negative control and comparison control (medium composition containing deacylated gellan gum) by a cell imaging apparatus are shown in FIG. 8. In addition, number of constituent cells of A549 cell spheres (average cell number per sphere), sphere number (average sphere number per 10 mm^2), projected area of sphere (size) (μm^2), obtained from the cell imaging analysis, are shown in Table 12. As for the negative control and comparison control, the relative cell number when the amount of luminescence without addition of the anticancer agent is 1 was determined from the measurement results of the surviving cell number using the intracellular ATP as an index, and shown in Table 13. Furthermore, the 50% inhibitory concentration (nM) of paclitaxel calculated from the amount of luminescence based on intracellular ATP and high content analysis are shown in Table 14.

[2] = tested on: adenocarcinomic human alveolar basal epithelial cell line A549; experiment: CellTiter-Glo cell survival assay of anticancer agents (Experimental Example 8); type: cell-based; conditions: for IC50: Homo sapiens, A549, cell survival assay by luminescence, read-out: 50% inhibitory concentration
Description: Adenocarcinomic human alveolar basal epithelial cell line A549 (manufactured by DS PHARMA BIOMEDICAL CO., LTD.) was suspended in the above-mentioned medium composition containing low-molecular agar at 11,000 cells/mL. The above-mentioned cell suspension was dispensed to the wells of a 96 well flat bottom ultra-low attachment surface microplate (manufactured by Corning Incorporated, #3474) at 90 μL per 1 well. The plate was stood in a CO2 incubator (37° C., 5% CO2) overnight. […] Successively, the plate was further cultured in a standing state in a CO2 incubator (37° C., 5% CO2) for 7 days. As a negative control, a medium composition containing 10 (v/v) % FBS alone in DMEM (manufactured by Wako Pure Chemical Industries, Ltd.) was prepared. […] A549 cells were also suspended in each of the negative control and comparison control medium compositions, the negative control was dispensed to a 96 well flat bottom attachment surface microplate (manufactured by Corning Incorporated, #3585) and the comparison control was dispensed to a 96 well flat bottom ultra-low attachment surface microplate (manufactured by Corning Incorporated, #3474). […] CellTiter-Glo Luminescent Cell Viability Assay (manufactured by Promega) (100 μL) was added to the low-molecular agar-containing culture medium and each cell culture medium of the negative control and comparison control, the mixture was stood for 10 min at room temperature, and the amount of luminescence was measured by a microplate reader (“FlexStation 3”, manufactured by Molecular Devices) and according to the protocol recommended by Promega. The amount of luminescence of the medium alone was subtracted, whereby the number of viable cells was measured.

SMILES: CC(=O)O[C@H]1C(=O)[C@@]2(C)[C@H]([C@H](OC(=O)c3ccccc3)[C@]3(O)C[C@H](OC(=O)[C@H](O)[C@@H](NC(=O)c4ccccc4)c4ccccc4)C(C)=C1C3(C)C)[C@]1(OC(C)=O)CO[C@@H]1C[C@@H]2O [paclitaxel, Paclitaxel]
- IC50 ([1]; Homo sapiens, A549, high content analysis by cell image analysis, number of constituent cells, read-out: paclitaxel 50% inhibitory concentration): 1.9 nM
- average cell number per sphere ([1]; paclitaxel 0.001 μM): 5.353
- number of average spheres per 10 mm^2 ([1]; paclitaxel 0.001 μM): 39.33
- projected area ([1]; paclitaxel 0.001 μM): 1161 μm^2
- average cell number per sphere ([1]; paclitaxel 0.01 μM): 1.52
- number of average spheres per 10 mm^2 ([1]; paclitaxel 0.01 μM): 18
- projected area ([1]; paclitaxel 0.01 μM): 578 μm^2
- average cell number per sphere ([1]; paclitaxel 0.1 μM): 1.165
- number of average spheres per 10 mm^2 ([1]; paclitaxel 0.1 μM): 6.333
- projected area ([1]; paclitaxel 0.1 μM): 402 μm^2
- IC50 ([2]; comparison control (0.015 (w/v)% deacylated gellan gum medium)): 4.5 nM
- IC50 ([2]; low-molecular agar-containing medium): 4.9 nM
- IC50 ([2]; negative control (DMEM, 10% FBS, attachment surface plate)): 4.1 nM
- relative cell number (no anticancer agent = 100) ([2]; agent 0.001 μM, comparison control (0.015 (w/v)% deacylated gellan gum medium)): 99.9
- relative cell number (no anticancer agent = 100) ([2]; agent 0.001 μM, low-molecular agar-containing medium): 102.4
- relative cell number (no anticancer agent = 100) ([2]; agent 0.001 μM, negative control (DMEM, 10% FBS, attachment surface plate)): 100.1
- relative cell number (no anticancer agent = 100) ([2]; agent 0.01 μM, comparison control (0.015 (w/v)% deacylated gellan gum medium)): 23.5
- relative cell number (no anticancer agent = 100) ([2]; agent 0.01 μM, low-molecular agar-containing medium): 27
- relative cell number (no anticancer agent = 100) ([2]; agent 0.01 μM, negative control (DMEM, 10% FBS, attachment surface plate)): 18.8
- relative cell number (no anticancer agent = 100) ([2]; agent 0.1 μM, comparison control (0.015 (w/v)% deacylated gellan gum medium)): 10.8
- relative cell number (no anticancer agent = 100) ([2]; agent 0.1 μM, low-molecular agar-containing medium): 12.1
- relative cell number (no anticancer agent = 100) ([2]; agent 0.1 μM, negative control (DMEM, 10% FBS, attachment surface plate)): 5.5
